PubChem BioAssay (NCI)
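Five compound concentrations were applied to cells in 96-well plates for 48 hours; endpoints were derived by simple linear interpolation of the resulting dose-response curve. Here, GI50 denotes the concentration required for 50% inhibition of growth. TGI is the concentration that stops growth completely.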

Legend:
Assay in all cases: growth of human tumour cells (NCI), 48 h
HOP-62 NSCLC = test system: HOP-62 NSCLC
SK-OV-3 ovarian = test system: SK-OV-3 ovarian
SF-268 CNS = test system: SF-268 CNS
SW-620 colon = test system: SW-620 colon
LOX IMVI melanoma = test system: LOX IMVI melanoma
SNB-19 CNS = test system: SNB-19 CNS
MDA-MB-231 breast = test system: MDA-MB-231 breast
OVCAR-5 ovarian = test system: OVCAR-5 ovarian
U251 CNS = test system: U251 CNS
NCI-H460 lung = test system: NCI-H460 lung
K-562 leukemia = test system: K-562 leukemia
HOP-92 NSCLC = test system: HOP-92 NSCLC
HS 578T breast = test system: HS 578T breast
A498 renal = test system: A498 renal
HCT-15 colon = test system: HCT-15 colon
KM12 colon = test system: KM12 colon
UACC-257 melanoma = test system: UACC-257 melanoma
OVCAR-4 ovarian = test system: OVCAR-4 ovarian
DU-145 prostate = test system: DU-145 prostate
MALME-3M melanoma = test system: MALME-3M melanoma
HCT-116 colon = test system: HCT-116 colon
HL-60(TB) leukemia = test system: HL-60(TB) leukemia
RPMI-8226 leukemia = test system: RPMI-8226 leukemia
HCC-2998 colon = test system: HCC-2998 colon
A549 NSCLC = test system: A549 NSCLC
PC-3 prostate = test system: PC-3 prostate
SF-295 CNS = test system: SF-295 CNS
UACC-62 melanoma = test system: UACC-62 melanoma
ACHN renal = test system: ACHN renal
CAKI-1 renal = test system: CAKI-1 renal
MCF7 breast = test system: MCF7 breast
NCI/ADR-RES ovarian = test system: NCI/ADR-RES ovarian
T-47D breast = test system: T-47D breast
MOLT-4 leukemia = test system: MOLT-4 leukemia
SK-MEL-28 melanoma = test system: SK-MEL-28 melanoma
SK-MEL-5 melanoma = test system: SK-MEL-5 melanoma
TK-10 renal = test system: TK-10 renal
SNB-75 CNS = test system: SNB-75 CNS
COLO 205 colon = test system: COLO 205 colon
M14 melanoma = test system: M14 melanoma
NCI-H23 lung = test system: NCI-H23 lung
SF-539 CNS = test system: SF-539 CNS
OVCAR-3 ovarian = test system: OVCAR-3 ovarian
BT-549 breast = test system: BT-549 breast
NCI-H226 lung = test system: NCI-H226 lung
SR leukemia = test system: SR leukemia
SN12C renal = test system: SN12C renal
EKVX NSCLC = test system: EKVX NSCLC
786-0 renal = test system: 786-0 renal
MDA-MB-435 = test system: MDA-MB-435
CCRF-CEM leukemia = test system: CCRF-CEM leukemia
OVCAR-8 ovarian = test system: OVCAR-8 ovarian
HT29 colon = test system: HT29 colon
IGROV1 ovarian = test system: IGROV1 ovarian
NCI-H522 lung = test system: NCI-H522 lung
UO-31 renal = test system: UO-31 renal
SK-MEL-2 melanoma = test system: SK-MEL-2 melanoma
RXF 393 renal = test system: RXF 393 renal

O=C(COc1cccc(/C=C2/Oc3ccccc3C2=O)c1)Nc1nccs1
GI50 (HOP-62 NSCLC): 38.3 µM | TGI (HOP-62 NSCLC): > 100 µM | GI50 (SK-OV-3 ovarian): 48.6 µM | TGI (SK-OV-3 ovarian): > 100 µM | GI50 (SF-268 CNS): 6.23 µM | TGI (SF-268 CNS): 26.6 µM | GI50 (SW-620 colon): 27.4 µM | TGI (SW-620 colon): > 100 µM | GI50 (LOX IMVI melanoma): 2.78 µM | TGI (LOX IMVI melanoma): 10.2 µM | GI50 (SNB-19 CNS): 25.4 µM | TGI (SNB-19 CNS): > 100 µM | GI50 (MDA-MB-231 breast): 7.95 µM | TGI (MDA-MB-231 breast): 29.8 µM | GI50 (OVCAR-5 ovarian): 44 µM | TGI (OVCAR-5 ovarian): > 100 µM | GI50 (U251 CNS): 20.8 µM | TGI (U251 CNS): > 100 µM | GI50 (NCI-H460 lung): 31.6 µM | TGI (NCI-H460 lung): > 100 µM | GI50 (K-562 leukemia): 16.4 µM | TGI (K-562 leukemia): 53.7 µM | GI50 (HOP-92 NSCLC): 10.1 µM | TGI (HOP-92 NSCLC): 30.2 µM | GI50 (HS 578T breast): 24.4 µM | TGI (HS 578T breast): > 100 µM | GI50 (A498 renal): 20.8 µM | TGI (A498 renal): 85.4 µM | GI50 (HCT-15 colon): 28.3 µM | TGI (HCT-15 colon): > 100 µM | GI50 (KM12 colon): 10.5 µM | TGI (KM12 colon): 32.9 µM | GI50 (UACC-257 melanoma): 20.7 µM | TGI (UACC-257 melanoma): 56.3 µM | GI50 (OVCAR-4 ovarian): 19.5 µM | TGI (OVCAR-4 ovarian): 61.8 µM | GI50 (DU-145 prostate): 27.8 µM | TGI (DU-145 prostate): > 100 µM | GI50 (MALME-3M melanoma): 21.2 µM | TGI (MALME-3M melanoma): 50.9 µM | GI50 (HCT-116 colon): 22.8 µM | TGI (HCT-116 colon): > 100 µM | GI50 (HL-60(TB) leukemia): 2.86 µM | TGI (HL-60(TB) leukemia): 8.58 µM | GI50 (RPMI-8226 leukemia): 4.28 µM | TGI (RPMI-8226 leukemia): 23.1 µM | GI50 (HCC-2998 colon): 29 µM | TGI (HCC-2998 colon): 68.9 µM | GI50 (A549 NSCLC): 23.6 µM | TGI (A549 NSCLC): > 100 µM | GI50 (PC-3 prostate): 15.7 µM | TGI (PC-3 prostate): 58.1 µM | GI50 (SF-295 CNS): 36.4 µM | TGI (SF-295 CNS): > 100 µM | GI50 (UACC-62 melanoma): 25.6 µM | TGI (UACC-62 melanoma): 95.9 µM | GI50 (ACHN renal): 27.4 µM | TGI (ACHN renal): > 100 µM | GI50 (CAKI-1 renal): 15.9 µM | TGI (CAKI-1 renal): 34.4 µM | GI50 (MCF7 breast): 14.8 µM | TGI (MCF7 breast): > 100 µM | GI50 (NCI/ADR-RES ovarian): 30 µM | TGI (NCI/ADR-RES ovarian): > 100 µM | GI50 (T-47D breast): 16.8 µM | TGI (T-47D breast): 58.5 µM | GI50 (MOLT-4 leukemia): 13 µM | TGI (MOLT-4 leukemia): 31.4 µM | GI50 (SK-MEL-28 melanoma): 28.9 µM | TGI (SK-MEL-28 melanoma): > 100 µM | GI50 (SK-MEL-5 melanoma): 16.4 µM | TGI (SK-MEL-5 melanoma): 35.2 µM | GI50 (TK-10 renal): 15.9 µM | TGI (TK-10 renal): 68.7 µM | GI50 (SNB-75 CNS): 17.1 µM | TGI (SNB-75 CNS): 58.1 µM | GI50 (COLO 205 colon): 24.4 µM | TGI (COLO 205 colon): 97.9 µM | GI50 (M14 melanoma): 30.5 µM | TGI (M14 melanoma): > 100 µM | GI50 (NCI-H23 lung): 24.8 µM | TGI (NCI-H23 lung): > 100 µM | GI50 (SF-539 CNS): 17.1 µM | TGI (SF-539 CNS): 31.9 µM | GI50 (OVCAR-3 ovarian): 14.6 µM | TGI (OVCAR-3 ovarian): 38.8 µM | GI50 (BT-549 breast): 14.9 µM | TGI (BT-549 breast): 43.7 µM | GI50 (NCI-H226 lung): 22.9 µM | TGI (NCI-H226 lung): 67.9 µM | GI50 (SR leukemia): 4.09 µM | TGI (SR leukemia): 15.9 µM | GI50 (SN12C renal): 22.4 µM | TGI (SN12C renal): > 100 µM | GI50 (EKVX NSCLC): 31.9 µM | TGI (EKVX NSCLC): > 100 µM | GI50 (786-0 renal): 3.3 µM | TGI (786-0 renal): 14.4 µM | GI50 (MDA-MB-435): 21.2 µM | TGI (MDA-MB-435): 68 µM | GI50 (CCRF-CEM leukemia): 1.89 µM | TGI (CCRF-CEM leukemia): 3.73 µM | GI50 (OVCAR-8 ovarian): 16.5 µM | TGI (OVCAR-8 ovarian): 50.1 µM | GI50 (HT29 colon): 32.7 µM | TGI (HT29 colon): > 100 µM

CC(C)(OCc1ccccc1)c1ccccc1P(c1ccccc1)c1ccccc1
TGI (HOP-62 NSCLC): > 100 µM | TGI (IGROV1 ovarian): > 100 µM | TGI (SK-OV-3 ovarian): > 100 µM | TGI (SF-268 CNS): > 100 µM | TGI (SW-620 colon): > 100 µM | TGI (SNB-19 CNS): > 100 µM | TGI (MDA-MB-231 breast): > 100 µM | TGI (OVCAR-5 ovarian): > 100 µM | TGI (U251 CNS): > 100 µM | TGI (NCI-H522 lung): > 100 µM | TGI (NCI-H460 lung): > 100 µM | TGI (K-562 leukemia): > 100 µM | TGI (HOP-92 NSCLC): > 100 µM | TGI (HS 578T breast): > 100 µM | TGI (A498 renal): > 100 µM | TGI (HCT-15 colon): > 100 µM | TGI (UO-31 renal): > 100 µM | TGI (KM12 colon): 58 µM | TGI (UACC-257 melanoma): > 100 µM | TGI (OVCAR-4 ovarian): > 100 µM | TGI (DU-145 prostate): > 100 µM | TGI (MALME-3M melanoma): > 100 µM | TGI (SK-MEL-2 melanoma): > 100 µM | TGI (HCT-116 colon): > 100 µM | TGI (HL-60(TB) leukemia): 62.9 µM | TGI (RPMI-8226 leukemia): 22.8 µM | TGI (A549 NSCLC): > 100 µM | TGI (PC-3 prostate): > 100 µM | TGI (SF-295 CNS): > 100 µM | TGI (UACC-62 melanoma): > 100 µM | TGI (ACHN renal): > 100 µM | TGI (CAKI-1 renal): > 100 µM | TGI (MCF7 breast): > 100 µM | TGI (NCI/ADR-RES ovarian): > 100 µM | TGI (T-47D breast): > 100 µM | TGI (MOLT-4 leukemia): 84.5 µM | TGI (SK-MEL-28 melanoma): > 100 µM | TGI (SK-MEL-5 melanoma): > 100 µM | TGI (RXF 393 renal): > 100 µM | TGI (TK-10 renal): > 100 µM | TGI (SNB-75 CNS): > 100 µM | TGI (COLO 205 colon): > 100 µM | TGI (M14 melanoma): > 100 µM | TGI (NCI-H23 lung): 94 µM | TGI (SF-539 CNS): > 100 µM | TGI (OVCAR-3 ovarian): > 100 µM | TGI (BT-549 breast): > 100 µM | TGI (NCI-H226 lung): > 100 µM | TGI (SR leukemia): > 100 µM | TGI (SN12C renal): > 100 µM | TGI (EKVX NSCLC): 91.2 µM | TGI (786-0 renal): > 100 µM | TGI (MDA-MB-435): > 100 µM | TGI (OVCAR-8 ovarian): > 100 µM | TGI (HT29 colon): > 100 µM
